# Where two headings read alike, the source gives them in different places.
# Columns and labels:
# [1] = system: Lactobacillus casei subsp. paracasei DN-114 121; test: Cell count of Lactobacillus casei subsp. paracasei co-cultured with yogurt ferments in dairy medium; assay type: cell-based; conditions: for ratio count.Mn/count. J + 1 / ratio count.Mn/count. J + 3: Mn 20 mg/L vs without Mn; for Count ufc/ml at +10° C. J + 1 / Count ufc/ml at +10° C. J + 3: Mn 20 mg/L
# Experimental: Medium A and medium B are inoculated with Lactobacillus casei subsp. paracasei DN-114 121 (3.80×10^7 CFU/ml), and a yogurt ferment (DN 542 142) consisting of: Streptococcus thermophilus DN-001 640 (10^6 CFU/ml), Streptococcus thermophilus DN-001 336 (2. 10^6 CFU/ml), Streptococcus thermophilus DN-001 236 (7. 10^5 CFU/ml) and Lactobacillus bulgaricus DN-100 290 (10^5 CFU/ml).
# Fermentation was conducted at 36° C., and monitored by measuring the decrease of pH in the culture medium. Fermentation was stopped by transferring the preparation at 4° C. when a target pH of 4.6 was reached.
# (§1) The population of Lactobacillus casei subsp. paracasei, was evaluated at J+3 by cell count analysis. Cell count analysis was performed by serial dilutions of the fermented medium with tryptone salt solution, and plating on Petri dishes with appropriate agar medium: MRS Agar containing 1.5 g/l of BactoOXGALL (DIFCO) for Lactobacillus casei.
# (§2) Petri dishes were incubated at 37° C. during 96 H in anaerobic conditions (5% CO2).
# Two yogurt ferments were tested in combination with Lactobacillus casei: DN 542 142 described above, and DN 543 043, consisting of a strain of Streptococcus thermophilus (DN-.001 171) and a strain of Lactobacillus bulgaricus (DN-100 182).
# Lactobacillus casei subsp. paracasei DN-114 121 was inoculated at 3.8 10^7 CFU/ml.
# DN 542 142 was inoculated at 10^6 CFU/ml for Streptococcus thermophilus DN-001 640; 2.10^6 CFU/ml for Streptococcus thermophilus DN-001 336; 7.10^5 CFU/ml for Streptococcus thermophilus DN-001 236, and 10^5 CFU/ml for Lactobacillus bulgaricus DN-100 290.
# DN 543 043 was inoculated at 2.10^6 CFU/ml for Streptococcus thermophilus DN-001 171; and 7.10^4 CFU/ml for Lactobacillus bulgaricus DN-100 182.
# Fermentation was conducted at 36° C., and monitored by measuring the decrease of pH in the culture medium. Fermentation was stopped by transferring the preparation at 4° C. when a target pH of about 4.6 (in the case of the co-culture with the yogurt ferment DN 542 142), or of about 4.45 (in the case of the co-culture with the yogurt ferment DN 543 043) was reached.
# The population of Lactobacillus casei subsp. paracasei was evaluated after 1 day (J+1) and 3 days (J+3) incubation at 10° C.
# (§3) The same experimentations as in Example 1 were performed with co-cultures of Lactobacillus casei subsp. paracasei DN-114 121 or Lactobacillus casei subsp. rhamnosus DN-116 010 with the yogurt ferment DN 543 043 described above, or the yogurt ferment DN 522 044, consisting of a strain of Streptococcus thermophilus (DN-001 143), Streptococcus thermophilus (DN-001 257) and a strain of Lactobacillus lactis (DN-111 224).
# (§4) Fermentation was conducted at 36° C., and monitored by measuring the decrease of pH in the culture medium. Fermentation was stopped by transfering the preparation at 4° C. when a target pH of about 4.6 was reached.
# (§5) The population of Lactobacillus casei subsp. paracasei was evaluated after 1 day (J+1) incubation at 10° C.
# [2] = system: Lactobacillus casei subsp. rhamnosus DN-116 010; conditions: for paracasei ou rhamnosus count. num. Mn/count. J + 1 / Count ufc/ml at +10° C. Count. J + 1 paracasei ou rhamnosus: 543 043 + 116 010
# Experimental: as §1, §2, §3
# Lactobacillus casei subsp. rhamnosus DN-116 010 was inoculated at 5.8 10^7. CFU/ml.
# DN 543 043 was inoculated at 2 10^6 CFU/ml for Streptococcus thermophilus DN-001 171; and 7 10^4 CFU/ml for Lactobacillus bulgaricus DN-100 182.
# as §4, §5
# [3] = system: Streptococcus thermophilus and Lactobacillus bulgaricus; test: Acidification kinetics of the co-cultures (monitoring of yogurt bacteria growth by pH decrease); assay type: cell-based
# Excerpt: The populations of Streptococcus thermophilus and Lactobacillus bulgaricus were not evaluated by cell counts, but by the evaluation of the acidification kinetics. It is well known that Streptococcus thermophilus and Lactobacillus bulgaricus grow faster in milk than L. casei and their lactic acid productions are directly correlated to their growth. Also, in the present invention, the monitoring of acidification corresponds to the monitoring of Streptococcus thermophilus and Lactobacillus bulgaricus growth.
# [4] = addition of 20 mg/l of manganese, Example 1 co-cultures (DN 542 142 or DN 543 043 + DN-114 121)
substance,measurement,setting,value
monohydrate manganese sulfate [Mn],paracasei ou rhamnosus count. num. Mn/count. J + 1,"[1]; 522 044 + 114 121, 20 mg/L Mn vs 0 mg/L Mn",2.3
same,Count ufc/ml at +10° C. Count. J + 1 paracasei ou rhamnosus,"[1]; 522 044 + 114 121, 20 mg/L Mn",3.25E+08 ufc/ml
same,ratio count.Mn/count. J + 1,[1]; 542 142 + 114 121,1.9
same,ratio count.Mn/count. J + 3,[1]; 542 142 + 114 121,1.7
same,Count ufc/ml at +10° C. J + 1,[1]; 542 142 + 114 121,1.15E+08 ufc/ml
same,Count ufc/ml at +10° C. J + 3,[1]; 542 142 + 114 121,1.61E+08 ufc/ml
same,paracasei ou rhamnosus count. num. Mn/count. J + 1,"[1]; 543 043 + 114 121, 0.5 mg/L Mn vs 0 mg/L Mn",2.2
same,Count ufc/ml at +10° C. Count. J + 1 paracasei ou rhamnosus,"[1]; 543 043 + 114 121, 0.5 mg/L Mn",2.99E+08 ufc/ml
same,paracasei ou rhamnosus count. num. Mn/count. J + 1,"[1]; 543 043 + 114 121, 20 mg/L Mn vs 0 mg/L Mn",2.3
same,Count ufc/ml at +10° C. Count. J + 1 paracasei ou rhamnosus,"[1]; 543 043 + 114 121, 20 mg/L Mn",3.13E+08 ufc/ml
same,paracasei ou rhamnosus count. num. Mn/count. J + 1,"[1]; 543 043 + 114 121, 60 mg/L Mn vs 0 mg/L Mn",2.4
same,Count ufc/ml at +10° C. Count. J + 1 paracasei ou rhamnosus,"[1]; 543 043 + 114 121, 60 mg/L Mn",3.25E+08 ufc/ml
same,ratio count.Mn/count. J + 1,[1]; 543 043 + 114 121,1.9
same,ratio count.Mn/count. J + 3,[1]; 543 043 + 114 121,2.1
same,Count ufc/ml at +10° C. J + 1,[1]; 543 043 + 114 121,2.70E+08 ufc/ml
same,Count ufc/ml at +10° C. J + 3,[1]; 543 043 + 114 121,3.00E+08 ufc/ml
same,effect on the population of the bacteria of the L. casei group,"[1]; Example 2, Lactobacillus casei ssp paracasei, 0.5, 20, 60 mg/l manganese",selectively increases the population
same,effect on the population of Lactobacillus casei,[1]; [4],selectively increases the population of Lactobacillus casei
same,paracasei ou rhamnosus count. num. Mn/count. J + 1,[2]; 20 mg/L Mn vs 0 mg/L Mn,1.3
same,Count ufc/ml at +10° C. Count. J + 1 paracasei ou rhamnosus,[2]; 20 mg/L Mn,3.20E+08 ufc/ml
same,paracasei ou rhamnosus count. num. Mn/count. J + 1,[2]; 60 mg/L Mn vs 0 mg/L Mn,1.3
same,Count ufc/ml at +10° C. Count. J + 1 paracasei ou rhamnosus,[2]; 60 mg/L Mn,3.30E+08 ufc/ml
same,effect on the population of the bacteria of the L. casei group,"[2]; Example 2, Lactobacillus casei ssp rhamnosus, 20, 60 mg/l manganese",selectively increases the population
same,effect on the acidification kinetics of the co-cultures,"[3]; Example 2 co-cultures, 0.5, 20, 60 mg/l manganese",no effect
same,effect on the acidification kinetics of the co-cultures,[3]; [4],no effect
